Reference: US10815237B2, “Antimicrobials and methods of making and using same” (BIOVERSYS AG, priority 2016, dated 2020)

How the values were obtained:
[1] = tested on: Chinese hamster ovary (CHO) cells; assay: cytotoxicity against CHO cell line (Cell Titer Blue); format: cell-based; settings: CHO-K1 cells, 24 hours incubation, percent cell kill
Description: The compounds of the present disclosure were tested for cytotoxicity against Chinese hamster ovary (CHO) cells.
The assay was performed by seeding CHO—K1 in F12K medium containing 13.33% Fetal Bovine Serum […]. 37.5 μl of cell suspension at a concentration of 9,500 cells/well was plated into each column of a 384-well black clear bottom assay plate with the exception of a negative (no cell) control column, and allowed to adhere for 2 hours. The culture media was then removed from the 175 cm^2 flask(s) and the cell monolayer washed with 10 mL of Phosphate Buffered Saline PBS. 3 mL of Cellstripper™ was then added and the flask was incubated for approximately 5 min at 37° C. The cells were dissociated by agitation and 7 mL of F 12K medium containing 10% FBS was added to the flask. A homogeneous cell suspension was obtained by trituration of the flask. The cells were counted with a hemocytometer by diluting an aliquot of the cell suspension in PBS with 0.4% trypan blue. Typically, a ratio of 100 μl cell suspension to 1800 μl PBS to 100 μl trypan blue was used.
The volume of cell suspension containing the number of cells needed to seed the plate(s) (15.2 mL containing 3.8×10^6 cells) was calculated and transferred to a 50 mL centrifuge tube with the appropriate volume of media. 37.5 μl of cells were added to each well of the 384 well plate except for the negative (no cell) control column. A cytotoxicity 100-fold dilution plate was then prepared by manually pipetting 18 μl of 100% DMSO into two columns of an empty low volume dilution plate. 2 μl of a 50 mM solution of compounds 1-23 from the translation plate were manually pipetted into the corresponding columns of the 100-fold dilution plate. 10 μl of 100% DMSO was manually pipetted into all remaining columns of the 100-fold plate.
A 4-fold cytotoxicity plate was prepared beforehand by manually pipetting 48 μl of F12K media (without DMSO and without FBS) into each well of a matrix 384 well plate. The test samples in the 100-fold dilution plate were mixed and diluted. Ten 2-fold dilutions were performed for each compound in duplicate. The 384 cannula array then transferred 2 μl to the 48 μl of media in the cytotoxicity 4-fold dilution plate. The array was then mixed and 12.5 μl of samples from the cytotoxicity 4-fold dilution plate were transferred to the 37.5 μl of cells and media. The final top concentration of samples at this point in the procedure was 50 μM with 10 subsequent 1:2 dilutions down to […]. The final DMSO concentration were 1% and the final concentration of FBS was 10%.
Cycloheximide was run as a control. Specifically, Cycloheximide was diluted to 0.1 mM from 100 mM stock […] and was added to the cytotoxicity 100-fold plate. Upon addition to the cell plate, a range of 1 μM to 1 nM of cycloheximide was run.
A column separate from the one (referred to above) that served as the negative control was used for cell control wells to which only media was added.
The plates were then incubated for 24 hours at 37° C. and 5% CO2. […] The two columns used earlier to prepare the 100-fold dilution plate by pipetting 18 μl of 100% DMSO contained the samples tested at 200 μM. After the 24 hour incubation period, the 4 μl of Cell Titer blue was added to each well using a Multichannel Matrix pipettor. The plates were returned to the incubator and incubated for an additional 5 hours. Fluorescence (530 nm excitation wavelength/590 nm emission wavelength) was measured on a Wallac Victor microplate reader.
Cell viability was assessed fluorometrically after a 5 hour incubation with resazurin (Cell Titer Blue™), which is reduced by living cells to the fluorescent resorufin.
The average fluorescence for the negative control was determined to obtain the average blank fluorescence. The average blank fluorescence was subtracted from the fluorescence values obtained for all the test agents. The resulting values are the corrected fluorescence. […]

[2] = tested on: Eschericia coli (E. coli) strain ATCC25922; assay: standard microdilution MIC, E. coli; format: cell-based, Escherichia coli; settings: for MIC: Escherichia coli
Description: (§1) The in vitro activity of the compounds of the present disclosure can be determined. Antimicrobial testing is typically performed to determine the minimum inhibitory concentration (MIC). Minimum inhibitory concentrations (MICs) are determined by the microdilution method in a final volume of 100 μl according to protocols outlined by The Clinical and Laboratory Standards Institute (CLSI). Performance standards for reference strains are assessed within the same experimental design to maintain quality control. See, for example, Clinical Laboratory Standards Institute: Methods for dilution antimicrobial susceptibility tests for bacteria that grow aerobically M7-A8. Approved Standard-Eighth Edition. Wayne, Pa.: CLSI; December 2008; and Clinical Laboratory Standards Institute: Performance Standards for Antimicrobial Susceptibility Testing M100-S20; Approved Standard-Twentieth Edition. Wayne, Pa.: CLSI; June 2010.
(§2) The compounds of the present disclosure were tested for antimicrobial activity. The Compounds 1-23 were run against Eschericia coli (E. coli) strain ATCC25922 and against Staphylococcus aureus (S. aureus) 11540 strain using a standard microdilution assay to determine minimum inhibitory concentrations (MICs). […] It will be recognized by one skilled in the art that the compounds can be assessed against other bacterial organisms and that the presentation of data for activity against Eschericia coli and Staphylococcus aureus are illustrative and in no way is intended to limit the scope of the present disclosure. The compounds of the present disclosure can be assayed against a range of other microorganisms depending upon the performance activity desired to be gathered. Furthermore, the “+” and “−” representation and the selection of a cutoff value of 16 micrograms/mL is also illustrative and in no way is intended to limit the scope of the present disclosure.

[3] = tested on: Staphylococcus aureus (S. aureus) 11540 strain; assay: standard microdilution MIC, S. aureus; format: cell-based; settings: for MIC: Staphylococcus aureus
Description: as §1, §2

Compound	IC50 ([1]; Cricetulus griseus, 24 h) [µM]	MIC [2] [µg/mL]	MIC [3] [µg/mL]	MIC E.coli [2]	IC50 [1] [µM]	MIC S. aureus [3]
C=C[C@@H](CCNC(=N)CN1CCOCC1)NCc1ccc(-n2cc3cc(-c4cc(CCC[C@H](C)N)cc(Cl)c4F)[nH]c3nc2=O)cc1 [Compound 1]	> 100					
C=C[C@H](CCNC(=N)CN1CCSCC1)NCc1ccc(-n2cc3cc(-c4cc(CCC[C@H](C)N)cc(Cl)c4F)[nH]c3nc2=O)cc1 [Compound 3]	> 100	≤ 16	≤ 16			
C[C@H](N)CCCc1cc(Cl)c(F)c(-c2cc3cn(-c4ccc(CN[C@@H](CO)CCNC(=N)CN5CCSCC5)cc4)c(=O)nc3[nH]2)c1 [Compound 4]	> 100	≤ 16	≤ 16			
C=C[C@@H](CCNC(=N)CN1CC[C@H](F)C1)NCc1ccc(-n2cc3cc(-c4cc(CCC[C@H](C)N)cc(Cl)c4F)[nH]c3nc2=O)cc1 [Compound 5]	> 100	≤ 16	≤ 16			
C=C[C@@H](CCNC(=N)CN1CCOCC1)NCc1ccc(-n2cc3cc(-c4cc(CCC[C@H](C)N)cc(Cl)c4F)[nH]c3nc2=O)cc1 [Compound 6]		≤ 16	≤ 16			
C=C[C@@H](CCNC(=N)CN1CCSCC1)NCc1ccc(-n2cc3cc(-c4cc(CCC[C@H](C)N)cc(Cl)c4F)[nH]c3nc2=O)cc1 [Compound 7]	> 100	≤ 16	≤ 16			
C[C@H](N)CCCc1cc(Cl)c(F)c(-c2cc3cn(-c4ccc([C@H](C)NCCCNC(=N)CN)cc4)c(=O)nc3[nH]2)c1 [Compound 9]	> 100	≤ 16	≤ 16			
CSc1cc(-n2cc3cc(-c4cc(CCC[C@H](C)N)cc(Cl)c4F)[nH]c3nc2=O)ccc1[C@@H]1CCC[C@@H](CCNC(=N)CN)N1 [Compound 10]	> 100	≤ 16	≤ 16			
COC[C@H](N)CCCc1cc(OC(F)(F)F)c(F)c(-c2cc3cn(-c4ccc([C@@H]5CCC[C@@H](CCNC(=N)CN)N5)cc4)c(=O)nc3[nH]2)c1 [Compound 11]	> 100	≤ 16	≤ 16			
N=C(CN)NCC[C@@H]1CCC[C@@H](c2ccc(-n3cc4cc(-c5cc(CCC[C@@H](N)C6CC6)cc(Cl)c5F)[nH]c4nc3=O)cc2)N1 [Compound 12]	> 100	≤ 16	≤ 16			
C[C@H](N)CCCc1cc(Cl)c(F)c(-c2cc3cn(-c4ccc([C@@H]5CCC[C@@H](CCNC(=N)CN)N5)c(F)c4)c(=O)nc3[nH]2)c1 [Compound 13]	> 100	≤ 16	≤ 16			
C[C@H](N)CCCc1cc(Cl)c(F)c(-c2cc3cn(-c4ccc([C@@H]5CCC[C@@H](CCNC(=N)CN)N5)cc4)c(=O)nc3[nH]2)c1 [Compound 14]				+ (the compound has an MIC value of 16 micrograms/mL or less)	> 100	+ (the compound has an MIC value of 16 micrograms/mL or less)
C[C@H](N)CCCc1cc(Cl)c(F)c(-c2cc3cn(-c4cc(F)c([C@@H]5CCC[C@@H](CCNC(=N)CN)N5)c(F)c4)c(=O)nc3[nH]2)c1 [Compound 15]	> 100	≤ 16	≤ 16			
N=C(CN)NCC[C@@H]1CCC[C@@H](c2ccc(-n3cc4cc(-c5cc(CCC[C@@H](N)CO)cc(Cl)c5F)[nH]c4nc3=O)cc2)N1 [Compound 16]	50.9	≤ 16	≤ 16			
C[C@H](N)CCCc1cc(-c2cc3cn(-c4ccc([C@@H]5CCC[C@@H](CCNC(=N)CN)N5)cc4)c(=O)nc3[nH]2)cc(C(F)(F)F)c1 [Compound 17]	> 100	≤ 16	≤ 16			
CN=C(CN)NCC[C@@H]1CCC[C@@H](c2ccc(-n3cc4cc(-c5cc(CCC[C@H](C)N)cc(Cl)c5F)[nH]c4nc3=O)cc2)N1 [Compound 18]	> 100	≤ 16	≤ 16			
CSC[C@H](N)CCCc1cc(Cl)c(F)c(-c2cc3cn(-c4ccc([C@@H]5CCC[C@@H](CCNC(=N)CN)N5)cc4)c(=O)nc3[nH]2)c1 [Compound 19]	> 100	≤ 16	≤ 16			
C[C@H](N)CCCc1cc(Cl)c(F)c(-c2cc3cn(-c4ccc([C@@H]5CCC[C@@H](CCNC(=N)CN)N5CCCF)cc4)c(=O)nc3[nH]2)c1 [Compound 20]	> 100	≤ 16	≤ 16			
C[C@H](N)CCCc1cc(-c2cc3cn(-c4ccc([C@@H]5CCC[C@@H](CCNC(=N)CN)N5)cc4)c(=O)nc3[nH]2)ccc1C(F)(F)F [Compound 21]	> 100	≤ 16	≤ 16			
CSc1cc(-n2cc3cc(-c4cc(CCC[C@H](C)N)cc(C(F)(F)F)c4)[nH]c3nc2=O)ccc1[C@@H]1CCC[C@@H](CCNC(=N)CN)N1CCCF [Compound 22]	> 100	≤ 16	≤ 16			
C[C@H](N)CCCc1cc(-c2cc3cn(-c4ccc([C@@H]5CCC[C@@H](CCNC(=N)CN)N5CCCF)cc4)c(=O)nc3[nH]2)cc(C(F)(F)F)c1 [Compound 23]	> 100	≤ 16	≤ 16			
N=C(CN)NCC[C@@H]1CCC[C@@H](c2ccc(-n3cc4cc(-c5cc(CCC[C@@H](N)C6CC6)cc(C(F)(F)F)c5)[nH]c4nc3=O)cc2)N1CCCF [Compound 42]	> 100	≤ 16	≤ 16			
N=C(CN)NCC[C@@H]1CCC[C@@H](c2ccc(-n3cc4cc(-c5cc(CCC[C@@H](N)C6CC6)cc(C(F)(F)F)c5)[nH]c4nc3=O)cc2F)N1CCCF [Compound 43]	> 100	≤ 16	≤ 16			
C[C@H](N)CCCc1cc(-c2cc3cn(-c4ccc([C@@H]5CCC[C@@H](CCNC(=N)CN)N5CCCF)c(F)c4)c(=O)nc3[nH]2)cc(C(F)(F)F)c1 [Compound 44]	> 100	≤ 16	≤ 16			
N=C(CN)NCC[C@@H]1CCC[C@@H](c2ccc(-n3cc4cc(-c5cc(CCC[C@@H](N)C6CC6)cc(Cl)c5F)[nH]c4nc3=O)cc2)N1CCCF [Compound 45]	> 100	≤ 16	≤ 16			
C[C@H](N)CCCc1cc(Cl)c(F)c(-c2cc3cn(-c4ccc([C@@H]5CCC[C@@H](CCNC(=N)CN)N5CCCF)c(F)c4)c(=O)nc3[nH]2)c1 [Compound 46]	> 100	≤ 16	≤ 16			
N=C(CN)NCC[C@@H]1CCC[C@@H](c2ccc(-n3cc4cc(-c5cc(CCC[C@@H](N)C6CC6)cc(Cl)c5F)[nH]c4nc3=O)cc2F)N1CCCF [Compound 47]	50.5	≤ 16	≤ 16			
